Assay results: patent publication US10961228B2, “JAK1 selective inhibitors” (AstraZeneca AB, priority 2017, dated 2021)

What was measured:
[1] = test system: OVA-challenged Brown Norway rat; assay: OVA lung inflammation model, eosinophils in broncho alveolar lavage; format: in vivo; details: for reduction of eosinophils in BAL: inhaled DPI, vs OVA/OVA group 3
Description: Brown Norway rats were sensitised and challenged with chicken ovary albumin (OVA) (Clinical and Experimental Allergy, 37 (2007) 973-988). After inhaling an amount of micronized compound within the scope of the present disclosure, the reduction in airway inflammation in the lung of OVA-challenged Brown Norway rat was measured as % reduction of eosinophils in broncho alveolar lavage (BAL) compared to challenged, but untreated rat using the following protocol. As the model control, an i.t. over dose (2*300 μg/kg) of the model reference compound, Budesonide, was used. 74 animals were divided into 8 experimental groups and treated as follows: • Group 1 (Saline/Saline/Air), n=6—Sham (saline) sensitisation at Day0 (S1) and Day7 (S2) and sham (saline) challenged at Day14 (P1). Treatment room air • Group 2 (OVA/Saline/Lactose), n=8—Sensitised at Day0 (S1) and Day7 (S2) with Al(OH)3/OVA mixture followed by the i.t. sham (saline) challenge at Day14 (P1). Treatment DPI Lactose. • Group 3 (OVA/OVA/Lactose), n=12—Sensitised at Day0 (S1) and Day7 (S2) with Al(OH)3/OVA mixture followed by the i.t. OVA challenge at Day14 (P1). […] Treatment i.t. with Budesonide (model reference compound) at 2×300 μg/kg Day14. Twice daily. Prior to start of first sensitisation (S1), the body weight (BW) was recorded and all rats were tail marked with the identification number. The BW was additionally recorded prior to S2 and prior to the termination point (D15). All of the animals' BAL was determined. At the time of termination, the performer(s) (investigator) were blinded to the status of the individual rats, The rats where subcutaneously (s.c.) injected with a mixture of OVA/Al(OH)3 (100 μg OVA:100 mg Alum in 1 ml saline/rat), and intraperitoneally (i.p.) injected with 0.5 ml/rat of B. Pertussis toxin (0.1 μg/ml) at Day 0 and Day 7. Sham sensitisation was performed by s.c. and i.p. injections of isotonic saline with the same volume and strategy. Each exposure system consisted of a flow-past exposure inhalation chamber, rat restraining tubes and a Modified Wright Dust Feed mechanism. Measurements of the aerosol concentration in the inhalation chamber for each dose level was performed by filter sampling at one of the inhalation ports (AP40, 47 mm, Millipore). […] Rats from Group 2 and 3 were exposed to lactose in the restraining tube (Battelle chambers). Target inhaled doses (μg/kg) were calculated assuming exposure duration of 2-10 minutes and a body weight of 250 g using the following formula: The rats were weighed the day prior to OVA challenge. At challenge the rats were anaesthetised with Isoflurane mixture (air and 4% isoflurane) put in supine position with 30-40° angle and instilled with vehicle or compound. This intra-tracheal instillation was performed by using a modified metal cannula with bolus-bulb on the end. Rats were placed in. cages in a supine position with a head up until regaining consciousness. The reference compound was administered twice daily with the second daily administration 6 hours post the first daily administration. Instillation volume: 0.25 mL/rat. Five minutes (5′) before OVA challenge, blood was collected (0.2 ml) from the tongue vein and plasma (60 ul/well) was collected on 96-deepwell plate. The provocation occurred at Day14 (P1) and was applied 2 hours after compound administration. The rats were anaesthetized with Isoflurane mixture (air and 4% isoflurane) put in supine position with 30-40° angle and instilled with the isotonic saline or OVA (0.1 mg/ml). The intra-tracheal instillation was performed. by using a modified metal cannula with bolus-bulb on the end. Rats were placed in cages in a supine position with a head up until regaining consciousness. Sham challenge was performed by i.t. instillation of isotonic saline with the same volume and strategy. Instillation volume: 0.25 ml/rat. At 22 hours post OVA challenge (P1), rats were euthanized with an intraperitoneal injection of 1 ml pentobarbital (50 mg/ml). […]

[2] = target: recombinant JAK1 (amino acids 866-1154) (Homo sapiens (Human), UniProt P23458); assay: Enzyme inhibition studies, JAK1 (5 mM ATP, Caliper); format: biochemical
Chain of recombinant JAK1 (amino acids 866-1154) (P23458 866-1154): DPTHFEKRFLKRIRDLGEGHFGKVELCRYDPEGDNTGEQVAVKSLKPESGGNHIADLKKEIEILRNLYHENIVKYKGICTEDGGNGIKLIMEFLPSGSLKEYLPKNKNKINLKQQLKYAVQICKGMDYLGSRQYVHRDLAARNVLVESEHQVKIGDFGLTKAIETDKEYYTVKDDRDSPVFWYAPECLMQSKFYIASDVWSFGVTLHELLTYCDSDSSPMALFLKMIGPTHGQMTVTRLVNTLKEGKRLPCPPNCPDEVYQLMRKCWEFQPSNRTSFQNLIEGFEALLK
Outline: (§1)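 N-terminal GST-fused kinase domains from insect cells, run at 5 mM ATP with inhibitor at 30, 3, 0.3, 0.03, 0.003 and 0 μM final.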

[3] = Plasma drug concentration by LC-MSMS at termination of alopecia areata study; format: in vivo; details: 1-2 h after last oral dose at 12.5 mg/kg BW, C3H/HeJ mice
Description: Blood was sampled from behind the eye in EDTA-coated test tubes (Multivette 300, Sarstedt) and kept on ice. Plasma was obtained by centrifugation (4° C., 4000 G, 5 min) and 50 μL transferred to a 96-well NUNC plate and stored at −20° C. until analyzed with regards to drug concentration by LC-MSMS.

[4] = target: recombinant JAK3 (amino acids 781-1124) (Homo sapiens (Human), UniProt P52333); assay: Enzyme inhibition studies, JAK3 (5 mM ATP, Caliper); format: biochemical
Chain of recombinant JAK3 (amino acids 781-1124) (P52333 781-1124): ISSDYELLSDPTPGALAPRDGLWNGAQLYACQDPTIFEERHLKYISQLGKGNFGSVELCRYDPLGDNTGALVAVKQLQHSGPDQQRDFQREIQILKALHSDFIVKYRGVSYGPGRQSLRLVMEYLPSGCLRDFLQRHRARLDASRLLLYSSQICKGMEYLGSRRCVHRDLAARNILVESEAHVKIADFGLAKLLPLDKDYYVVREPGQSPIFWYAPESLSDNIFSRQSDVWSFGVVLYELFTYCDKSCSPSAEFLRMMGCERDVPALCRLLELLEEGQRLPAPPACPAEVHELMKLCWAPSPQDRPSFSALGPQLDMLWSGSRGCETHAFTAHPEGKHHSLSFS
Outline: as §1

[5] = target: recombinant JAK2 (amino acids 831-1132) (Homo sapiens (Human), UniProt O60674); assay: Enzyme inhibition studies, JAK2 (5 mM ATP, Caliper); format: biochemical
Chain of recombinant JAK2 (amino acids 831-1132) (O60674 831-1132): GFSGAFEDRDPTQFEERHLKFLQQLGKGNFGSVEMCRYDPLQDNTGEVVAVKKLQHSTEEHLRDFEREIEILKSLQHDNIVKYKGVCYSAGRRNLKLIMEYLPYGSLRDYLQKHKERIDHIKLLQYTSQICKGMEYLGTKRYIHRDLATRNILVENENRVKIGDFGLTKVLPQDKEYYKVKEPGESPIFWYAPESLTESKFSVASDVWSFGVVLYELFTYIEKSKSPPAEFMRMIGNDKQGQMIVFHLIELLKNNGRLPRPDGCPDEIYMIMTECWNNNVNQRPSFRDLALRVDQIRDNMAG
Outline: as §1

[6] = test system: IL-13 induced STAT6 promotor luciferase reporter in U937 monocytes (U937-STAT6-Luc); assay: Cellular interleukin (IL-13) induced JAK-STAT6-luciferase assay (pSTAT6); format: cell-based; details: Homo sapiens, U-937; IL-13 induced STAT6-luciferase, U937-STAT6-Luc cells
Outline: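 U937 STAT6-luciferase reporter cells in HEPES/HBSS/0.1% BSA buffer, pretreated with serially diluted compounds (10 mM to 0.5 nM DMSO stocks) and stimulated with IL-13. Incubation 4½ h at 37 °C then 30 min at room temperature; SteadyGlo luminescence read.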

IC50 [2] [nM] | mean plasma exposure (total concentration) [3] [nM] | IC50 [4] [nM] | IC50 [5] [nM] | IC50 [6] [nM] | SMILES | inhibition of eosinophils ([1]; i.t. over dose 2*300, twice daily Day14 (Group 8)) [%] | max inhibition of eosinophils ([1]; compared to OVA control (group 3), plateau from the 0.6 μg/kg dose) [%] | reduction of eosinophils in BAL ([1]; lung dose 0.08 μg/kg, not significant) [%] | reduction of eosinophils in BAL ([1]; lung dose 0.11 μg/kg, not significant) [%] | reduction of eosinophils in BAL ([1]; lung dose 0.6 μg/kg, p<0.01) [%] | reduction of eosinophils in BAL ([1]; lung dose 4.76 μg/kg, p<0.01) [%]
– | – | – | – | – | CCCC1O[C@@H]2C[C@H]3[C@@H]4CCC5=CC(=O)C=C[C@]5(C)[C@H]4[C@@H](O)C[C@]3(C)[C@]2(C(=O)CO)O1 (stereo partly drawn) [Budesonide, reference compound] | 97 | – | – | – | – | –
< 3 | 338 | > 30000 | – | – | COC[C@H](C(=O)Nc1cccc2c(-c3nc(Nc4cccc(S(C)(=O)=O)c4F)ncc3F)c[nH]c12)N1CCN(C)CC1 [Example 35, (R)-N-(3-(5-fluoro-2-(2-fluoro-3-(methylsulfonyl)phenylamino)pyrimidin-4-yl)-1H-indol-7-yl)-3-methoxy-2-(4-methylpiperazin-1-yl)propanamide] | – | 68 | 7 | 28 | 68 | 61
14 | – | > 30000 | 6720 | 258 | COC[C@@H](C(=O)Nc1cccc2c(-c3nc(Nc4cccc(S(C)(=O)=O)c4F)ncc3C)c[nH]c12)N1CCN(C)C[C@H]1C [Example 54, (S)-2-((R)-2,4-dimethylpiperazin-1-yl)-N-(3-(2-((2-fluoro-(methylsulfonyl)phenyl)amino)-5-methylpyrimidin-4-yl)-1H-indol-7-yl)-3-methoxypropanamide] | – | – | – | – | – | –
< 3 | – | > 30000 | 293 | 26 | COC[C@H](C(=O)Nc1cccc2c(-c3nc(Nc4cccc(S(C)(=O)=O)c4F)ncc3C)c[nH]c12)N1CCN(C)C[C@H]1C [Example 55, (R)-2-((R)-2,4-dimethylpiperazin-1-yl)-N-(3-(2-((2-fluoro-3-(methylsulfonyl)phenyl)amino)-5-methylpyrimidin-4-yl)-1H-indol-7-yl)-3-methoxypropanamide] | – | – | – | – | – | –
123 | – | > 30000 | > 30000 | 745 | COC[C@@H](C(=O)Nc1cccc2c(-c3nc(Nc4cccc(S(C)(=O)=O)c4F)ncc3F)c[nH]c12)N1CCN(C)C[C@H]1C [Example 56] | – | – | – | – | – | –
< 3 | – | > 30000 | 709 | 21 | COC[C@H](C(=O)Nc1cccc2c(-c3nc(Nc4cccc(S(C)(=O)=O)c4F)ncc3F)c[nH]c12)N1CCN(C)C[C@H]1C [Example 57, (R)-2-((R)-2,4-dimethylpiperazin-1-yl)-N-(3-(5-fluoro-2-((2-fluoro-3-(methylsulfonyl)phenyl)amino)pyrimidin-4-yl)-1H-indol-7-yl)-3-methoxypropanamide] | – | – | – | – | – | –
48.6 | – | > 30000 | 25300 | 130 | Cc1cnc(Nc2cccc(S(C)(=O)=O)c2F)nc1-c1c[nH]c2c(NC(=O)[C@@H](C)N3CCN(C)C[C@@H]3C)cccc12 [Example 58, (R)-2-((S)-2,4-dimethylpiperazin-1-yl)-N-(3-(2-((2-fluoro-3-(methylsulfonyl)phenyl)amino)-5-methylpyrimidin-4-yl)-1H-indol-7-yl)propanamide] | – | – | – | – | – | –
145 | – | > 30000 | > 30000 | > 6250 | Cc1cnc(Nc2cccc(S(C)(=O)=O)c2F)nc1-c1c[nH]c2c(NC(=O)[C@H](C)N3CCN(C)C[C@@H]3C)cccc12 [Example 59, (S)-2-((S)-2,4-dimethylpiperazin-1-yl)-N-(3-(2-((2-fluoro-3-(methylsulfonyl)phenyl)amino)-5-methylpyrimidin-4-yl)-1H-indol-7-yl)propanamide] | – | – | – | – | – | –
< 3 | – | > 30000 | 4140 | 54 | CCOC[C@H](C(=O)Nc1cccc2c(-c3nc(Nc4cccc(S(C)(=O)=O)c4F)ncc3C)c[nH]c12)N1CCN(C)CC1 [Example 62, (R)-3-ethoxy-N-(3-(2-((2-fluoro-3-(methylsulfonyl)phenyl)amino)-5-methylpyrimidin-4-yl)-1H-indol-7-yl)-2-(4-methylpiperazin-1-yl)propanamide] | – | – | – | – | – | –
< 30 | – | > 30000 | 910 | 26 | Cc1cnc(Nc2cccc(S(C)(=O)=O)c2F)nc1-c1c[nH]c2c(NC(=O)[C@@H](COCc3ccccc3)N3CCN(C)CC3)cccc12 [Example 64, (R)-3-(benzyloxy)-N-(3-(2-((2-fluoro-3-(methylsulfonyl)phenyl)amino)-5-methylpyrimidin-4-yl)-1H-indol-7-yl)-2-(4-methylpiperazin-1-yl)propanamide] | – | – | – | – | – | –
73 | – | > 30000 | > 30000 | 508 | Cc1cnc(Nc2cccc(S(C)(=O)=O)c2F)nc1-c1c[nH]c2c(NC(=O)[C@H](COCc3ccccc3)N3CCN(C)CC3)cccc12 [Example 65, (S)-3-(benzyloxy)-N-(3-(2-((2-fluoro-3-(methylsulfonyl)phenyl)amino)-5-methylpyrimidin-4-yl)-1H-indol-7-yl)-2-(4-methylpiperazin-1-yl)propanamide] | – | – | – | – | – | –
